Laboratory results taken from patent US12290535B2, “Langerin+ cell targeting” (Max-Planck-Gesellschaft zur Förderung der Wissenschaften …, priority 2018, dated 2025).

Key:
Format in all cases: binding
[1] = biological target: T1, Langerin ECD (Homo sapiens, UniProt Q9UJ71, V278A); test: 19F R2-filtered NMR reporter displacement assay (Ki determination); conditions: Langerin ECD 50 μM, pH 7.8, 25° C.
T1 construct: residues 148 to 328; TEV site (C); StreptagII (C); made in house; host or cells: E. coli BL21* (DE3)
Description: Langerin extracellular domain. Expression and purification were conducted as previously published (Wamhoff, E. C. et al. (19)F Nmr-Guided Design of Glycomimetic Langerin Ligands. ACS Chem Biol, 11, 2407-13 (2016)). Briefly, the trimeric Langerin extracellular domain (ECD) was expressed insolubly in E. coli BL21* (DE3) (Invitrogen). Following enzymatic cell lysis, inclusion bodies were harvested and subsequently solubilized. The sample was centrifuged and the Langerin ECD was refolded overnight via rapid dilution. Next, the sample was dialyzed overnight, centrifuged and purified via mannan-agarose affinity chromatography (Sigma Aldrich). For ^19F R2-filtered NMR and lipid-enzyme-linked lectin assay (Lipid-ELLA) experiments, the buffer was exchanged to 25 mM Tris with 150 mM NaCl and 5 mM CaCl2 at pH 7.8 using 7 kDa size-exclusion desalting columns (Thermo Scientific). For STD NMR experiments, Langerin ECD samples were dialyzed five times for at least 8 h against H2O. Subsequently, the H2O was removed via lyophilization and the residue was stored at −80° C. Prior to STD NMR experiments, the Langerin ECD was dissolved in 25 mM Tris-d11 (Eurisotope) with 100% D2O, 150 mM NaCl and 5 mM CaCl2 at pH 7. The concentration of Langerin ECD was determined via UV spectroscopy (A280, 0.1%=2.45). Purity and monodispersity of Langerin ECD samples were analyzed via SDS PAGE and DLS.
General remarks. ^19F R2-filtered NMR experiments were conducted on a PremiumCompact 600 MHz spectrometer (Agilent). Spectra were processed in MestReNova and data analysis was performed with OriginPro (Mestrelab Research. Mestrenova. 11.0.2. (2016); OriginLab. Originpro. 9.1. (2015)). Experiments with the Langerin ECD were performed at a receptor concentration of 50 μM in 25 mM Tris with 10% D2O, 150 mM NaCl and 5 mM CaCl2 at pH 7.8 and 25° C. Experiments with the DC-SIGN CRD were performed at a receptor concentration of 50 μM in 25 mM HEPES with 10% D2O, 150 mM NaCl and 5 mM CaCl2 at pH 7.0 and 25° C. TFA served as an internal reference at a concentration of 50 μM. Apparent relaxation rates R2,obs for the reporter ligand were determined using the CPMG pulse sequence as previously published (Wamhoff, E. C. et al. (19)F Nmr-Guided Design of Glycomimetic Langerin Ligands. ACS Chem Biol, 11, 2407-13 (2016): Carr, H. Y. & Purcell, E. M. Effects of Diffusion on Free Precession in Nuclear Magnetic Resonance Experiments. Phys Rev, 94, 630-638 (1954); Meiboom, S. & Gill, D. Modified Spin-Echo Method for Measuring Nuclear Relaxation Times. Rev Sci Instrum 29, 688-691 (1958)).
Ki determination. Ki values were determined as previously published for Langerin (Wamhoff, E. C. et al. (19)F NMR-Guided Design of Glycomimetic Langerin Ligands. ACS Chem Biol 11, 2407-13 (2016)). Briefly, titration experiments were conducted at a concentration of 0.1 mM of reporter ligand 24 at five competitor concentrations [I]T. Samples were prepared via serial dilution. For the acids GlcNS, GlcNAc-6-OS and GlcNS-6-OS the pH values were monitored and adjusted to 7.8 if necessary.

[2] = biological target: T2, DC-SIGN CRD (Homo sapiens, UniProt Q9NNX6); test: 19F R2-filtered NMR reporter displacement assay transferred to DC-SIGN; conditions: 19F R2-filtered NMR, DC-SIGN CRD 50 μM, pH 7.0, 25° C.
T2 construct: residues 205 to 404; TEV site (C); StreptagII (C); made in house; host or cells: E. coli BL21* (DE3)
T2 sequence (Q9NNX6 250-404): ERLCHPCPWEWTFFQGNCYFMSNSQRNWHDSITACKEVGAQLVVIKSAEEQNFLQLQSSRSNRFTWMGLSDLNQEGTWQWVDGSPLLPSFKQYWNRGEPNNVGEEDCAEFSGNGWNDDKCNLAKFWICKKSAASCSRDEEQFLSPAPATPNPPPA
Description: (§1) Langerin and DC-SIGN carbohydrate recognition domain. Expression and purification were conducted as previously published. Briefly, the monomeric ^15N-labeled Langerin and DC-SIGN carbohydrate recognition domains (CRDs) were expressed insolubly in E. coli BL21* (DE3) (Invitrogen). Following enzymatic cell lysis, inclusion bodies were harvested and subsequently solubilized. The sample was centrifuged and the Langerin and DC-SIGN CRDs were refolded overnight via rapid dilution. Next, the sample was dialyzed overnight, centrifuged and purified via StrepTactin affinity chromatography (Iba). After an additional dialysis step overnight, the sample was centrifuged and the buffer was exchanged to 25 mM HEPES with 150 mM NaCl at pH 7.0 using 7 kDa size-exclusion desalting columns (Thermo Scientific) for ^19F R2-filtered and ^15N HSQC NMR experiments. The concentration of Langerin and DC-SIGN CRDs was determined via UV spectroscopy (A280, 0.1%=3.19 and A280, 0.1%=2.98). Purity and monodispersity of Langerin and DC-SIGN CRD samples were analyzed via SDS PAGE and DLS.
(§2) General remarks. ^19F R2-filtered NMR experiments were conducted on a PremiumCompact 600 MHz spectrometer (Agilent). […] Apparent relaxation rates R2,obs for the reporter ligand were determined using the CPMG pulse sequence as previously published (Wamhoff, E. C. et al. (19)F Nmr-Guided Design of Glycomimetic Langerin Ligands. ACS Chem Biol, 11, 2407-13 (2016): Carr, H. Y. & Purcell, E. M. Effects of Diffusion on Free Precession in Nuclear Magnetic Resonance Experiments. Phys Rev, 94, 630-638 (1954); Meiboom, S. & Gill, D. Modified Spin-Echo Method for Measuring Nuclear Relaxation Times. Rev Sci Instrum 29, 688-691 (1958)).
(§3) Assay development for DC-SIGN. […] Briefly, the KD value and the relaxation rate in bound state R2,b were determined at five concentrations [L]T of reporter ligand 24 in three independent titration experiments. […]
(§4) Ki determination. Ki values were determined as previously published for Langerin (Wamhoff, E. C. et al. (19)F NMR-Guided Design of Glycomimetic Langerin Ligands. ACS Chem Biol 11, 2407-13 (2016)). […]

[3] = test system: DC-SIGN CRD; test: as above; conditions: Ki Langerin compared to Ki DC-SIGN
Description: as §1, §2, §3, §4

T1 sequence (Q9UJ71 148-328 V278A): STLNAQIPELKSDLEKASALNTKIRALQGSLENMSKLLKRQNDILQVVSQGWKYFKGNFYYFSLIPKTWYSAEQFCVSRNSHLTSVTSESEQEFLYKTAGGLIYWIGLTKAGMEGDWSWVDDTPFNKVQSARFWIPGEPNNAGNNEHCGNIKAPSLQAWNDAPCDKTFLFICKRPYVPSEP

CC(=O)NCCO[C@H]1O[C@H](CO)[C@@H](O)[C@H](O)[C@@H]1O [Man analog 21]
Ki [1]: 10 ± 1 mM | Ki [2]: 2.7 ± 0.3 mM | specificity for DC-SIGN over Langerin [3]: 3.7 fold
